Consider two molecules from patent US4689345A, “Oxygenated alkyl substituted bicyclo alkanes” (CBD Corporation, priority 1986, dated 1987).

Where “and” joins values, the source holds several entries; their conditions need not be identical. Equal values may be shown once.

The subject of data set [1] is collagen:elastin formation. The experiment in a line: Collagen synthesized and elastic increase compared to control, by patient. Format: cell-based, human. The settings on record: anti-androgen to DHT 1,000:1.
Data set [2] deals with androgen binding sites in a melanoma. The experiment in a line: Blocking of androgen binding sites in a melanoma. The settings on record: 1:1000 of dihydrotestosterone to the tested compound.
Data set [3] relates to estrogen receptor. Put plainly: Effect on estrogen receptors in melanoma. It is filed as binding. The settings on record: 1:1000 DHT to compound.
Data set [4] has as its system estrogen receptors. The experiment in a line: Effect on estrogen receptors in breast capsule tissue. It is filed as binding, human. The settings on record: breast capsule / hard band tissue. As for the experimental part: (§1) "Hard fibrous band" formation was retarded around breast implants following augmentation surgery.
The tissues were evaluated, with appropriate controls, for effects by the novel anti-androgen.

The target of data set [5] is T1, androgen receptor sites (Homo sapiens, UniProt P10275).
T1 construct: other tests of the document use human skin, keloid and fibroblasts with 3H-DHT
Put plainly: Retarding collagen formation through blockage of androgen receptor sites. The settings on record: Example 53. The method, then:
Accordingly, to treat arteriosclerosis, an oral dosage unit formulation is produced which contains 2 mg of 2-(5-methoxyhept-1-yl)bicyclo [3.3.0]octan-7-one {hexahydro-4-(5-methoxyheptyl)-2(1H)-pentalenone}, which is delivered to a subject once every six hours.

The test system of data set [6] is hard fibrous band. The experiment in a line: Hard fibrous band formation around breast implants following augmentation surgery. Also on record: species or system human.
Text: as §1

For data set [7], the target named is T2, androgen receptor (Homo sapiens, UniProt P10275).
T2 sequence (P10275 1-920): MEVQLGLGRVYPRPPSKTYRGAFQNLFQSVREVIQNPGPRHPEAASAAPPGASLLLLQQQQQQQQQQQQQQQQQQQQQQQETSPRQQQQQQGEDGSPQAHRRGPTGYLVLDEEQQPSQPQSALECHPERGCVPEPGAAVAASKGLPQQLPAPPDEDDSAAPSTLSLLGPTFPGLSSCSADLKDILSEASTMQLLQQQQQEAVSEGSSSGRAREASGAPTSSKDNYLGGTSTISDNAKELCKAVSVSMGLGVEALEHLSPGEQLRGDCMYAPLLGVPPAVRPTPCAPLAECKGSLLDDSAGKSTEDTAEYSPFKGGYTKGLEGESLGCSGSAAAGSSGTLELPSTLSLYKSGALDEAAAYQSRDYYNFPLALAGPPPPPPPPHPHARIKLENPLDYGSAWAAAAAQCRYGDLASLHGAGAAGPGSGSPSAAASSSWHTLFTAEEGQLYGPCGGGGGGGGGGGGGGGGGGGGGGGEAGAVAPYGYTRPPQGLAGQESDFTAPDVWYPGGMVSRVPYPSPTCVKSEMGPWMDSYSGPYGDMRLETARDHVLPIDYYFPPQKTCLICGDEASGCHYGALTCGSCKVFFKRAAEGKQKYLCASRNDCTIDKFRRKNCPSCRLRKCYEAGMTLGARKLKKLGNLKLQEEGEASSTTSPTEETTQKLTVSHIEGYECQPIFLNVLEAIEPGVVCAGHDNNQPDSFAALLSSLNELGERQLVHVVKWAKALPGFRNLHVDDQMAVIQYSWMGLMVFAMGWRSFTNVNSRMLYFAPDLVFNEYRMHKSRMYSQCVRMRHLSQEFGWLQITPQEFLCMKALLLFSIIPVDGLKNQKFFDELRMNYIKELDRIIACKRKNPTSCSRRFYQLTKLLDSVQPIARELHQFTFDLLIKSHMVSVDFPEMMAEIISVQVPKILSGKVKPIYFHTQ
Put plainly: Androgen receptor inhibition in skin/tissue fibroblast lines. It is filed as cell-based. Further details: The bald skin was used for androgen receptors using the second technique described above; from tissue; host or cells: bald scalp skin of hair transplantation volunteers. The settings on record: DHT:compound 1:1,000. As for the experimental part: Explants of both normal and keloid skin and tissue fibroblast lines were established.
Hormonal receptor analyses on these tissues were performed by the method of Griffith et al., Journal of Clinical Investigation, Vol. 57, page 1340 (1978).

For data set [8], the system named is fungal androgen receptors. Put plainly: Fungal androgen receptor inhibition, Fusarium. Format: binding. From the text: (§2) In the second series of experiments using the compound of the invention 2-(5-hydroxyhept-1-yl) bicyclo[3.3.0]octan-7-one {hexahydro-4-(5-hydroxyheptyl)-2-(1H)-pentalenone} upon zeralenone and zearalanol production, zearalenone and zearalanol were chemically obtained from Sigma Chemical Co., St. Louis, Mo.

Data set [9] has as its system estrogen receptor. The experiment in a line: Fungal estrogen receptor inhibition, Fusarium. It is filed as binding.
Data set [10] concerns androgen receptor. The experiment in a line: Androgen receptor inhibition, Fusarium calorum. It is filed as binding.
Text: as §2

Data set [11] relates to progesterone receptor. Put plainly: Progesterone receptor inhibition, Fusarium calorum. It is filed as binding.
Text: as §2

The test system of data set [12] is androgen receptor. Put plainly: Androgen receptor inhibition, Candida. Format: binding.
Data set [13] concerns progesterone receptor. The experiment in a line: Progesterone receptor inhibition, Candida. Format: binding.
In data set [14] the test system is androgen receptor. The experiment in a line: Androgen receptor inhibition, Torulopsis. It is filed as binding.
The test system of data set [15] is progesterone receptor. The experiment in a line: Progesterone receptor inhibition, Actinomyces. Format: binding.
In data set [16] the test system is progesterone receptor. Put plainly: Progesterone receptor inhibition, Coccodia. It is filed as binding.
Data set [17] concerns estrogen receptor. Put plainly: Estrogen receptor inhibition, Trichophyton. It is filed as binding.
For data set [18], the system named is progesterone receptor. The experiment in a line: Progesterone receptor inhibition, Trichophyton. Format: binding.
Data set [19] concerns estrogen receptor. The experiment in a line: Estrogen receptor inhibition, Blastomyces. It is filed as binding.
Data set [20] has as its system progesterone receptor. Put plainly: Progesterone receptor inhibition, Blastomyces. It is filed as binding.
For data set [21], the system named is androgen receptor. The experiment in a line: Androgen receptor inhibition, Cryptococci. It is filed as binding.
The test system of data set [22] is progesterone receptor. The experiment in a line: Progesterone receptor inhibition, Cryptococci. It is filed as binding.
Data set [23] deals with androgen receptor. The experiment in a line: Androgen receptor inhibition, Sporotrichum. Format: binding.
The test system of data set [24] is estrogen receptor. The experiment in a line: Estrogen receptor inhibition, Sporotrichum. It is filed as binding.
Data set [25] concerns progesterone receptor. Put plainly: Progesterone receptor inhibition, Sporotrichum. It is filed as binding.
Data set [26] has as its system progesterone receptor. The experiment in a line: Progesterone receptor inhibition, Norcardia. Format: binding.

Regarding `CCC(CCCCC1CCC2CC(=O)CC12)OC` (stereo not shown) [Compound V, 2-(5-Methoxyhept-1-yl)bicyclo[3.3.0]octan-7-one], the “Fold Elastic Increase Compared to Control” value in data set [1] (patient 1) was determined as 1.4 Fold; in [1] (patient 2) it was 4.7 Fold; in data set [1] (patient 3), 2.0 Fold; in data set [1] (patient 4), 4.0 Fold; in [1] (patient 5) it was 6.0 Fold; in data set [1] (patient 6), 2.0 Fold. In addition, the “Fold Elastic Increase Compared to Control” value in [1] (patient 7) turned out to be 3.0 Fold; in data set [1] (patient 8) it was 3.0 Fold; in data set [1] (patient 9), 4.0 Fold; in [1] (patient 10), 6.0 Fold; in data set [1] (patient 11) it was 3.0 Fold. In [2], the “block of androgen binding sites in a melanoma” value is given as 59-80%. The “effect on estrogen receptors in melanoma tissue” value in data set [3] was “no significant effect”. The “effect on estrogen receptors” value in data set [4] is on record as “without any significant effects”; in data set [4] (listed as 2-(5-methoxyhept-1-yl)bicyclo[3.3.0]octan-7-one), “no significant effects”. In [5], the “retarding collagen formation through blockage of androgen receptor sites” value is “excellent results in retarding collagen formation through blockage of androgen receptor sites”. In addition, the “hard fibrous band formation around breast implants” value in [6] was “retarded”. Moreover, the “% Androgen Receptor Inhibition” value is 22% in data set [7] (forearm); 72% and 41% in data set [7] (keloid).
As to `CCC(O)CCCCC1CCC2CC(=O)CC12` (stereo not shown) [Compound IV], the “fungal androgen receptors blocked” value in data set [8] (DHT:compound 1:1,000) was 9-83%. Further, the “% Androgen Receptor Inhibition” value in data set [8] (fungal hormone Zeralanol) turned out to be 84%; in [8] (fungal hormone Zeralenone) it was 79%; in [10] (DHT:anti-androgen 1:1), 29%; in data set [10] (DHT:anti-androgen 1:10) it was 37%; in data set [10] (DHT:anti-androgen 1:100) it was 79%; in data set [10] (DHT:anti-androgen 1:1,000) it was 90%. The “% Androgen Receptor Inhibition” value is 92% in data set [12], 77% in data set [14], 76% in data set [21] and 29% in [23]. Besides, the “blocking of interaction of fungal hormone and its hormonal receptors” value in data set [8] (hormone:anti-androgen 1:1 to 1:1,000) is 26-90%. Further, the “% Estrogen Receptor Inhibition” value in data set [9] (fungal hormone Zeralanol), in data set [9] (fungal hormone Zeralenone), in data set [17], in data set [19] and in [24] was 0% throughout. In addition, the “% Progesterone Receptor Inhibition” value in [11] (DHT:anti-androgen 1:1) is given as 7%; in data set [11] (DHT:anti-androgen 1:10), 9%; in data set [13] it was 7%; in data set [15], 0%; in data set [16], 4%; in data set [18], 7%. Moreover, the “% Progesterone Receptor Inhibition” value in data set [20] is recorded as 3%; in [22], 4%; in data set [25] it was 7%; in [26], 0%.
